{
  "source": "patent US20260053767A1",
  "about": "“Hepatoprotective Compositions And Methods” (Jemyll, Ltd., priority 2022, published 2026)",
  "tested_on": "Wistar rats",
  "experiment": "Study 2 (reversal): oral glucose tolerance test and HOMA-IR",
  "type": "in vivo",
  "settings": "Study 2: 9 weeks high fat-high cholesterol diet, then 4 weeks treatment",
  "experimental": "Study design: All animal procedures were approved by the Catholic University of Rome Institutional Animal Care Committee. The design of the studies is summarized in FIG. 18, Panels A and B. • Study 1: Twenty adult Wistar rats, aged 8-10 weeks, were included in the study. The rats were housed in individual cages at 22° C. with 12-h light cycles and had ad libitum access to food and water. Rats were fed a high-fat high-cholesterol diet (44% Carbohydrate, 14% Protein, 42% fat+0.2% Cholesterol) (Mucedola, Milan, IT) for four weeks in the presence or absence of 1% Dodecanedioic acid, sodium salt (w/vol) dissolved in the water (FIG. 18, Panel A). Body weight and food/water intake were monitored weekly. • Study 2: Twenty adult Wistar rats, aged 8-10 weeks, were included in the study. The rats were housed in individual cages at 22° C. with 12-h light cycles and had ad libitum access to food and water. Rats were fed a high-fat high-cholesterol diet (44% Carbohydrate, 14% Protein, 42% fat+0.2% Cholesterol) (Mucedola, Milan, IT). After nine weeks of diet, rats were randomly assigned to one of the following groups: Four weeks of high-fat high-cholesterol diet or four weeks of high-fat high-cholesterol diet and 1% Dodecanedioic acid, sodium salt (w/v) dissolved in the water FIG. 18, Panel B). Body weight and food/water intake were monitored weekly.\nOral Glucose Test Tolerance (OGTT): All animals underwent an OGTT at the end of the study. After an overnight fasting, the rats received a 50% D-glucose solution (1 g/kg body weight) by oral gavage. Blood samples were taken by tail bleeding and collected in EDTA tubes. All blood samples were immediately centrifuged, and plasma divided into appropriate subsamples and stored at −20° C. for further analysis. Blood glucose and was measured at 0, 20, 40, 60, 80, 100 and 120 minutes, while plasma insulin at 0, 60 and 120 minutes. Blood glucose levels were measured by glucometer (Accu-Chek, Roche Diagnostics Division, Grenzacherstrasse, CH). Plasma insulin was measured by ELISA (EMD Millipore Corporation, Billerica, MA), with a sensitivity of 0.1 ng/ml and an intra-and inter-assay precision of 1.9% and 7.6%, respectively.\nDODA administration reverses insulin resistance and NASH: To assess if DODA could reverse the development of diet-induced insulin resistance and NASH, rats were first fed high fat high cholesterol diet for 9 weeks to develop insulin resistance and NASH. After 9 weeks of diet, DODA was administered for 4 weeks to assess insulin resistance and NASH reversal. Rats fed high fat high cholesterol diet without the administration of DODA were included as controls.\nPanels A and B. • Study 1: Twenty adult Wistar rats, aged 8-10 weeks, were included in the study. The rats were housed in individual cages at 22° C. with 12-h light cycles and had ad libitum access to food and water. Rats were fed a high fat high cholesterol diet (44% Carbohydrate, 14% Protein, 42% fat+0.2% Cholesterol) for 4 weeks in the presence or absence of 1% Dodecanedioic acid, sodium salt dissolved in the water (FIG. 25, Panel A). Body weight and food/water intake were monitored weekly. • Study 2: Twenty adult Wistar rats, aged 8-10 weeks, were included in the study. The rats were housed in individual cages at 22° C. with 12-h light cycles and had ad libitum access to food and water. Rats were fed a high fat-high cholesterol diet (44% Carbohydrate, 14% Protein, 42% fat+0.2% Cholesterol). […] Body weight and food/water intake were monitored weekly. […]",
  "note": "Entries after “also recorded” stand apart in the source; their conditions may differ.",
  "data": [
    {"smiles": "O=C(O)CCCCCCCCCCC(=O)O", "note": "[DDDA, dodecanedioic acid]", "values": [
      {"measurement": "blood glucose concentrations during an oral glucose tolerance test", "setting": "vs controls", "value": "decrease"},
      {"measurement": "insulin resistance as assessed by HOMA-IR", "setting": "vs controls", "value": "reverse insulin resistance"},
      {"measurement": "plasma insulin concentrations during an oral glucose tolerance test", "setting": "vs controls", "value": "decrease"},
      {"measurement": "diet-induced insulin resistance and NASH (overall, reversal)", "setting": "listed as C12", "value": "could reverse both diet-induced insulin resistance and NASH; also recorded: reverses diet-induced insulin resistance"},
      {"measurement": "diet-induced insulin resistance and NASH (overall, reversal)", "setting": "listed as DODA", "value": "could reverse both diet-induced insulin resistance and NASH; also recorded: reverses diet-induced insulin resistance"}
    ]}
  ]
}
